# Tests used:
# [1] = Reconstitution of lyophilized P-407 formulated cakes in 100 μL DPBS (visual appearance); type: physicochemical; conditions: 100 nmols ligand, 100 μL DPBS (JF-552: after 4 h)
# Method: The 1 μmol JF Dye HaloTag Ligand (JF-669 or JF-552) was dissolved in ca. 3.5 mL EtOH, followed by transferring the resulting solution to the melted P-407. The resulting mixture was rotated at ca. 65° C. to afford a homogeneous solution. […]
# [2] = Solubility analysis: clarity by optical density at 850 nm (OD850) after reconstitution; type: physicochemical; conditions: lyophilized, reconstituted in DPBS pH 7.0, 1 mM
# Method: FIG. 4. Solubility of dye-chloroalkyl ligand conjugates following lyophilization in the presence of various excipients and reconstitution in DPBS pH 7.0.
# Vials of lyophilized Chloroalkyl-JANELIA FLUOR 552 (CA-JF 552) and Chloroalkyl-JANELIA FLUOR 669 (CA-JF 669) formulated prior to lyophilization with various excipients were separately dissolved in 100 μL aqueous buffer to a final 1 mM concentration. 70 μl of the CA-JF 552 and CA-JF 669 solutions were then transferred to wells of a transparent 96-well plate for clarity analysis using Optical Density absorbance measurements at 850 nm [Bandwidth 3.5 nm] (OD850) on Tecan Spark plate reader (FIGS. 4 and 5). Target absorbance limit for clarity measurements was determined using a known turbidity sample of material similarly formulated with poloxamer to assess solubility of the ligand.
# A clarity target of <0.1 was utilized.
appearance after reconstitution ([1]; 3-mg-P407 formulation),appearance after reconstitution ([1]; 9-mg-P407 formulation),clarity (OD850) versus clarity target <0.1 ([2]; excipient cyclodextrin),clarity (OD850) versus clarity target <0.1 ([2]; excipient pullulan),Molecule
hazy suspension,clear solution,unable to hit clarity target,unable to hit clarity target,"C[Si]1(C)C2=CC(=[N+]3CCC3)C=CC2=C(c2c(F)c(C(=O)NCCOCCOCCCCCCCl)c(F)c(F)c2C(=O)[O-])c2ccc(N3CCC3)cc21 [JF-669, Chloroalkyl-JANELIA FLUOR 669]"
hazy suspension,clear solution,unable to hit clarity target,unable to hit clarity target,Chloroalkyl-JANELIA FLUOR 552 [JF-552]

# — patent US20240343906A1, “POLOXAMER-STABILIZED REAGENTS” (Promega Corporation, priority 2023, published 2024)
